Pest or weed control and inhibition of growth data for 21 molecules are collected here from patent publication US20200022370A1, “MICROBIOCIDAL OXADIAZOLE DERIVATIVES” (SYNGENTA PARTICIPATIONS AG, priority 2016, published 2020).

A value given as a limit tells only on which side of the number the result lay.

One test concerns Uromyces viciae-fabae. Nature of the test: Uromyces viciae-fabae / field bean / leaf disc preventative (faba-bean rust). The conditions noted are these: foliar, 288 h, 100 ppm in the applied formulation, field bean leaf discs, inoculated two hours after application, vs untreated, 12 days after application, read-out: disease control. It is filed as in vivo. On the procedure: (§1) Leaf disks or leaf segments of various plant species are cut from plants grown in a greenhouse. The cut leaf disks or segments are placed in multiwell plates (24-well format) onto water agar. The leaf disks are sprayed with a test solution before (preventative) or after (curative) inoculation. Compounds to be tested are prepared as DMSO solutions (max. 10 mg/ml) which are diluted to the appropriate concentration with 0.025% Tween20 just before spraying. The inoculated leaf disks or segments are incubated under defined conditions (temperature, relative humidity, light, etc.) according to the respective test system. A single evaluation of disease level is carried out 3 to 14 days after inoculation, depending on the pathosystem. Percent disease control relative to the untreated check leaf disks or segments is then calculated.
Example 5: Fungicidal Activity Against Uromyces viciae-fabael Field Bean/Leaf Disc Preventative (Faba-Bean Rust)
Field bean leaf discs are placed on water agar in multiwell plates (96-well format) and 10 μl of the Formulated test compound diluted in acetone and a spreader pipetted onto the leaf disc. Two hours after application leaf discs are inoculated by spraying a spore suspension on the lower leaf surface. The leaf discs are incubated in a climate cabinet at 22° C. with 18 hour day and 70% relative humidity. The activity of a compound is assessed as percent disease control compared to untreated when an appropriate level of disease damage appears in untreated check leaf disks (12 days after application).
The following compounds at 100 ppm in the applied Formulation give at least 80% disease control in this test when compared to untreated control leaf discs under the same conditions, which show extensive disease development.

The subject of test [1] is Glomerella lacenarium (Colletotrichum lacenarium). Description: Glomerella lacenarium (Colletotrichum lacenarium) liquid culture / cucumber / preventative (anthracnose). The conditions noted are these: 20 ppm, liquid culture in PDB, 24° C., inhibition of growth measured photometrically 3 to 4 days after application, vs untreated, read-out: disease control. The test is classed as cell-based. In short, it runs like this: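 Cryopreserved conidia in potato dextrose broth were added to test compound in a 96-well microtiter plate and incubated at 24 °C. Growth inhibition read photometrically 3–4 days after application, as percent activity versus untreated check.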

The next test deals with Phakopsora pachyrhizi. Nature of the test: Phakopsora pachyrhizi / soybean / leaf disc preventative (Asian soybean rust). It is filed as in vivo. The conditions noted are these: foliar, 200 ppm in the applied formulation, soybean leaf disks, inoculated one day after application, vs untreated, 12 to 14 days after application, read-out: disease control. In short, it runs like this: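 Soybean leaf discs on water agar sprayed with formulated compound diluted in water, then inoculated one day later with spore suspension on the lower surface. Held 24-36 h dark at 20 °C, 75% rh, then 12 h light/day; percent disease control versus untreated scored 12-14 days after application.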

Test [2] concerns Puccinia recondita f. Sp. Tritici. Nature of the test: Puccinia recondita f. sp. tritici / wheat / leaf disc curative (brown rust). The test is classed as in vivo. As to conditions: foliar, 200 ppm in the applied formulation, wheat leaf segments cv. Kanzler, compound applied 1 day after inoculation, vs untreated, 6 to 8 days after application, read-out: disease control. As to the method:
as §1
Example 2: Fungicidal Activity Against Puccinia recondita f. sp. tritici/Wheat/Leaf Disc Curative (Brown Rust)
Wheat leaf segments cv. Kanzler are placed on agar in multiwell plates (24-well format). The leaf segments are then inoculated with a spore suspension of the fungus. Plates were stored in darkness at 19° C. and 75% relative humidity. The Formulated test compound diluted in water was applied 1 day after inoculation. The leaf segments were incubated at 19° C. and 75% relative humidity under a light regime of 12 hours light/12 hours darkness in a climate cabinet and the activity of a compound was assessed as percent disease control compared to untreated when an appropriate level of disease damage appears in untreated check leaf segments (6 to 8 days after application).
The following compounds at 200 ppm in the applied Formulation give at least 80% disease control in this test when compared to untreated control leaf disks under the same conditions, which show extensive disease development.

Test [3] shares this test system. Nature of the test: Puccinia recondita f. sp. tritici / wheat / leaf disc preventative (brown rust). The conditions noted are these: foliar, 200 ppm in the applied formulation, wheat leaf segments cv. Kanzler, inoculated 1 day after application, vs untreated, 7 to 9 days after application, read-out: disease control. The test is classed as in vivo. In short, it runs like this: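 Segments of cv. Kanzler wheat on agar received a spray of compound formulation diluted in water and were inoculated with spores one day afterwards. Kept at 19° C and 75% rh under 12 h/12 h light; disease control relative to untreated checks rated at 7–9 days post-application.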

For the molecule `O=C(Nc1ccc(-c2noc(C(F)(F)F)n2)cc1)c1ccccc1` [Compound 1.3, N-[4-[5-(trifluoromethyl)-1,2,4-oxadiazol-3-yl]phenyl]benzamide], the pest or weed control at 100 ppm in the test on Uromyces viciae-fabae was not below 80%.
Still for that read-out and setting: for `O=C(Nc1ccc(-c2noc(C(F)(F)F)n2)cc1)c1cccn2ccnc12` [Compound 1.7, N-[4-[5-(trifluoromethyl)-1,2,4-oxadiazol-3-yl]phenyl]imidazo[1,2-a]pyridine-8-carboxamide] the value was not below 80%; for `O=C(Nc1ccc(-c2noc(C(F)(F)F)n2)cc1)c1cn(C2CC2)c2cc(Cl)c(F)cc2c1=O` [Compound 1.8, 7-chloro-1-cyclopropyl-6-fluoro-4-oxo-N-[4-[5-(trifluoromethyl)-1,2,4-oxadiazol-3-yl]phenyl]quinoline-3-carboxamide], not below 80%.
Turning to `O=C(Nc1ccc(-c2noc(C(F)(F)F)n2)cc1)c1cccc2c1OCCO2` [Compound 1.9, N-[4-[5-(trifluoromethyl)-1,2,4-oxadiazol-3-yl]phenyl]-2,3-dihydro-1,4-benzodioxine-5-carboxamide], the pest or weed control at 100 ppm with Uromyces viciae-fabae is not below 80%.
On the same count and under the same terms, the same measure for `O=C(NC(C(=O)Nc1ccc(-c2noc(C(F)(F)F)n2)cc1)c1ccccc1)OCc1ccccc1` (stereo not drawn) [Compound 1.14, benzyl N-[2-oxo-1-phenyl-2-[4-[5-(trifluoromethyl)-1,2,4-oxadiazol-3-yl]anilino]ethyl] carbamate]: not below 80%; for `O=C(C=Cc1cccc2ccccc12)Nc1ccc(-c2noc(C(F)(F)F)n2)cc1` [Compound 1.17, 3-(1-naphthyl)-N-[4-[5-(trifluoromethyl)-1,2,4-oxadiazol-3-yl]phenyl]prop-2-enamide]: not below 80%.
On the same count and under the same terms, for `COc1cc(OC)nc(Oc2ncccc2C(=O)Nc2ccc(-c3noc(C(F)(F)F)n3)cc2)n1` [Compound 1.22, 2-(4,6-dimethoxypyrimidin-2-yl)oxy-N-[4-[5-(trifluoromethyl)-1,2,4-oxadiazol-3-yl]phenyl]pyridine-3-carboxamide] the value was not below 80%; for `COc1ccc(Br)cc1C(C)C(=O)Nc1ccc(-c2noc(C(F)(F)F)n2)cc1` (stereo not drawn) [Compound 1.24, 2-(5-bromo-2-methoxy-phenyl)-N-[4-[5-(trifluoromethyl)-1,2,4-oxadiazol-3-yl]phenyl] propanamide], not below 80%.
Take `Cn1nc(C(=O)Nc2ccc(-c3noc(C(F)(F)F)n3)cc2)c(Cl)c1OC(F)F` [Compound 1.25, 4-chloro-5-(difluoromethoxy)-1-methyl-N-[4-[5-(trifluoromethyl)-1,2,4-oxadiazol-3-yl]phenyl]pyrazole-3-carboxamide]: in the test on Uromyces viciae-fabae, the pest or weed control at 100 ppm is not below 80%.
Same read-out and setting: the same measure for `O=C(Nc1ccc(-c2noc(C(F)(F)F)n2)cc1)c1nccc2nnsc12` [Compound 1.28, N-[4-[5-(trifluoromethyl)-1,2,4-oxadiazol-3-yl]phenyl]thiadiazolo [5,4-c]pyridine-4-carboxamide]: not below 80%.
Same read-out and setting: for `CC(C)C(NC(=O)OC(C)(C)C)C1=NOC(C(=O)Nc2ccc(-c3noc(C(F)(F)F)n3)cc2)C1` (stereo not drawn) [Compound 1.30, tert-butyl N-[2-methyl-1-[5-[[4-[5-(trifluoromethyl)-1,2,4-oxadiazol-3-yl]phenyl]carbamoyl]-4,5-dihydroisoxazol-3-yl]propyl]carbamate] the value was not below 80%; for `Cn1nc(C(C)(C)C)cc1C(=O)Nc1cccc(C(=O)Nc2ccc(-c3noc(C(F)(F)F)n3)cc2)c1` [Compound 1.33, 5-tert-butyl-2-methyl-N-[3-[[4-[5-(trifluoromethyl)-1,2,4-oxadiazol-3-yl]phenyl]carbamoyl]phenyl]pyrazole-3-carboxamide], not below 80%.
With `CN(C(=O)C1(C#N)CC1)c1ccc(-c2noc(C(F)(F)F)n2)cc1` [Compound 1.142, 1-cyano-N-methyl-N-[4-[5-(trifluoromethyl)-1,2,4-oxadiazol-3-yl]phenyl]cyclo-propanecarboxamide], in test [1], the inhibition of growth at 20 ppm is not below 80%. Besides, the pest or weed control at 200 ppm (in the test on Phakopsora pachyrhizi; in test [2]; in test [3]) was not below 80% throughout.
Regarding `COC(C)C(=O)N(C)c1ccc(-c2noc(C(F)(F)F)n2)cc1` (stereo not drawn) [Compound 1.143, 2-methoxy-N-methyl-N-[4-[5-(trifluoromethyl)-1,2,4-oxadiazol-3-yl]phenyl] propanamide], the inhibition of growth at 20 ppm in test [1] was not below 80%. For the same molecule, the pest or weed control at 200 ppm (in the test with Phakopsora pachyrhizi; in test [2]; in test [3]) was not below 80% throughout.
As to `C#CCCC(=O)Nc1ccc(-c2noc(C(F)(F)F)n2)cc1` [Compound 2.4, N-[4-[5-(trifluoromethyl)-1,2,4-oxadiazol-3-yl]phenyi]pent-4-ynamide], in test [1], the inhibition of growth at 20 ppm was not below 80%. The pest or weed control at 200 ppm (with Phakopsora pachyrhizi; in test [2]; in test [3]) was not below 80% in each case.
Consider `CCCC(=O)Nc1ccc(-c2noc(C(F)(F)F)n2)cc1` [Compound 2.5, N-[4-[5-(trifluoromethyl)-1,2,4-oxadiazol-3-yl]phenyl] butanamide], for which the inhibition of growth at 20 ppm in test [1] was not below 80%. Besides, the pest or weed control at 200 ppm (in the test with Phakopsora pachyrhizi; in test [2]; in test [3]) was not below 80% throughout.
On to `O=C(Nc1ccc(-c2noc(C(F)(F)F)n2)cc1)C1CC=CC1` [Compound 2.7, N-[4-[5-(trifluoromethyl)-1,2,4-oxadiazol-3-yl]phenyl]cyclopent-3-ene-1-carboxamide], for which, in test [1], the inhibition of growth at 20 ppm was not below 80%. Besides, the pest or weed control at 200 ppm (in the test with Phakopsora pachyrhizi; in test [2]; in test [3]) was not below 80% in each case.
As to `N#CCC(=O)Nc1ccc(-c2noc(C(F)(F)F)n2)cc1` [Compound 2.13, 2-cyano-N-[4-[5-(trifluoromethyl)-1,2,4-oxadiazol-3-yl]phenyl] acetamide], the inhibition of growth at 20 ppm in test [1] is not below 80%. Also, the pest or weed control at 200 ppm (in the test on Phakopsora pachyrhizi; in test [2]; in test [3]) was not below 80% in each case.
In the case of `COCCCC(=O)Nc1ccc(-c2noc(C(F)(F)F)n2)cc1` [Compound 2.16, 4-methoxy-N-[4-[5-(trifluoromethyl)-1,2,4-oxadiazol-3-yl]phenyl] butanamide], the inhibition of growth at 20 ppm in test [1] is not below 80%. Further, the pest or weed control at 200 ppm (in the test with Phakopsora pachyrhizi; in test [2]; in test [3]) was not below 80% throughout.
In the case of `CN(C(=O)c1ccccc1)c1ccc(-c2noc(C(F)(F)F)n2)cc1` [Compound 2.20, N-methyl-N-[4-[5-(trifluoromethyl)-1,2,4-oxadiazol-3-yl]phenyl]benzamide], the inhibition of growth at 20 ppm in test [1] was not below 80%. Moreover, the pest or weed control at 200 ppm (in the test on Phakopsora pachyrhizi; in test [2]; in test [3]) was not below 80% each time.
For `CC(=O)Nc1ccc(-c2noc(C(F)(F)F)n2)cn1` [Compound 2.29, N-[5-[5-(trifluoromethyl)-1,2,4-oxadiazol-3-yl]-2-pyridyl]acetamide], in test [1], the inhibition of growth at 20 ppm is not below 80%. Besides, the pest or weed control at 200 ppm (with Phakopsora pachyrhizi; in test [2]; in test [3]) was not below 80% in each case.
